Source: patent publication US7923450B2, “Modulators for amyloid beta” (Hoffmann-La Roche Inc., priority 2008, dated 2011)
pEC50: −log10 of the molar value.

Columns and labels:
[1] = test system: γ-secretase; test: Cellular γ-secretase assay (Aβ42 secretion); type: cell-based; details: inhibition of Aβ42 secretion; human neuroglioma H4 cells overexpressing human APP; 22 hrs incubation; read-out: EC50 in vitro
Description: Cellular γ-Secretase Assay
Human neuroglioma H4 cells overexpressing human APP were plated at 30,000 cells/well/200 μl in 96-well plates in IMDM media containing 10% FCS, 0.2 mg/l Hygromycin B and incubated for 2 h at 37° C., 5% CO2 prior to adding test compounds.
Compounds for testing were dissolved in 100% Me2SO yielding in a 10 mM stock solution. Typically 12 μl of these solutions were further diluted in 1000 μl of IMDM media (w/o FCS,). Sub sequential 1:1 dilutions gave a ten point dose response curve. 100 μl of each dilution was added to the cells in 96-well plates. Appropriate controls using vehicle only and reference compound were applied to this assay. The final concentration of Me2SO was 0.4%.
After incubation for 22 hrs at 37° C., 5% CO2, 50 μl supernatant was transferred into round-bottom 96-well polypropylene plates for detection of Aβ42. 50 μl assay buffer (50 mM Tris/Cl, pH 7.4, 60 mM NaCl, 0.5% BSA, 1% TWEEN 20) was added to the wells followed by the addition of 100 μl of detection antibody (ruthenylated Aβ42-specific antibody BAP15 0.0625 μg/mL in assay buffer). 50 μl of a premix of capture antibody (biotinylated 6E10 antibody, 1 μg/mL) and Steptavidin-coated magnetic beads (Dynal M-280, 0.125 mg/mL) were preincubated for 1 hr at room temperature before adding the assay plates. Assay plates were incubated on a shaker for 3 hrs at room temperature and finally read in the Bioveris M8 Analyser according to the manufacturer's instructions (Bioveris).
EC50 values for inhibition of Aβ42 secretion were calculated by nonlinear regression fit analysis using XLfit 4.0 software (IDBS).

## Cc1cn(-c2ccc(Nc3nc4c(s3)CCCC4(C)c3ccccc3)cc2F)cn1 (centres unmarked) [Example 31, [3-Fluoro-4-(4-methyl-imidazol-1-yl)-phenyl]-(4-methyl-4-phenyl-4,5,6,7-tetrahydro-benzothiazol-2-yl)-amine]
other
  melting point: 160 to 164 °C

## Cc1cn(-c2ccc(Nc3nc4c(s3)CCCC4c3ccc(OC(F)(F)F)cc3)cc2F)cn1 (centres unmarked) [Example 34, [3-Fluoro-4-(4-methyl-imidazol-1-yl)-phenyl]-[4-(4-trifluoromethoxy-phenyl)-4,5,6,7-tetrahydro-benzothiazol-2-yl]-amine]
other
  melting point: 148 to 151 °C

## COc1cc(Nc2ncc3c(n2)C(C)(c2ccccc2)CCC3)ccc1-n1cnc(C)c1 (centres unmarked) [Example 45, [3-Methoxy-4-(4-methyl-imidazol-1-yl)-phenyl]-(8-methyl-8-phenyl-5,6,7,8-tetrahydro-quinazolin-2-yl)-amine]
other
  melting point: 207 to 209 °C

## CCCC1(c2cccc(OC)c2)CCCc2cnc(Nc3ccc(-n4cnc(C)c4)c(OC)c3)nc21 (centres unmarked) [Example 46, [3-Methoxy-4-(4-methyl-imidazol-1-yl)-phenyl]-[8-(3-methoxy-phenyl)-8-propyl-5,6,7,8-tetrahydro-quinazolin-2-yl]-amine]
other
  melting point: 166 to 168 °C

## COc1cc(Nc2ncc3c(n2)C(c2cccc(C(F)(F)F)c2)CCC3)ccc1-n1cnc(C)c1 (centres unmarked) [Example 47, [3-Methoxy-4-(4-methyl-imidazol-1-yl)-phenyl]-[8-(3-trifluoromethyl-phenyl)-5,6,7,8-tetrahydro-quinazolin-2-yl]-amine]
other
  melting point: 213 to 215 °C

## COc1cc(Nc2ncc3c(n2)C(c2ccc(Cl)cc2Cl)CCC3)ccc1-n1cnc(C)c1 (centres unmarked) [Example 48, [8-(2,4-Dichloro-phenyl)-5,6,7,8-tetrahydro-quinazolin-2-yl]-[3-methoxy-4-(4-methyl-imidazol-1-yl)-phenyl]-amine]
other
  melting point: 256 to 258 °C

## COc1cc(Nc2ncc3c(n2)C(c2ccc(Cl)c(Cl)c2)CCC3)ccc1-n1cnc(C)c1 (centres unmarked) [Example 49, [8-(3,4-Dichloro-phenyl)-5,6,7,8-tetrahydro-quinazolin-2-yl]-[3-methoxy-4-(4-methyl-imidazol-1-yl)-phenyl]-amine]
other
  melting point: 167 to 169 °C

## COc1cc(Nc2ncc3c(n2)C(c2ccc(F)cc2)CCC3)ccc1-n1cnc(C)c1 (centres unmarked) [Example 51, [8-(4-Fluoro-phenyl)-5,6,7,8-tetrahydro-quinazolin-2-yl]-[3-methoxy-4-(4-methyl-imidazol-1-yl)-phenyl]-amine]
other
  melting point: 191 to 193 °C

## COc1cc(Nc2ncc3c(n2)C(CC#N)(c2ccc(Cl)cc2)CCC3)ccc1-n1cnc(C)c1 (centres unmarked) [Example 52, {8-(4-Chloro-phenyl)-2-[3-methoxy-4-(4-methyl-imidazol-1-yl)-phenylamino]-5,6,7,8-tetrahydro-quinazolin-8-yl}-acetonitrile]
other
  melting point: 156 to 158 °C

## COc1cc(Nc2nc(O)c3c(n2)C(c2ccccc2)CN(C)C3)ccc1-n1cnc(C)c1 (centres unmarked) [Example 53, 2-[3-Methoxy-4-(4-methyl-imidazol-1-yl)-phenylamino]-6-methyl-8-phenyl-5,6,7,8-tetrahydro-pyrido[4,3-d]pyrimidin-4-ol]
other
  melting point: 152 to 155 °C

## CCOC(=O)C1CCCc2cnc(Nc3ccc(-n4cnc(C)c4)c(OC)c3)nc21 (centres unmarked) [Example 54, Ethyl 2-[3-methoxy-4-(4-methyl-imidazol-1-yl)-phenylamino]-5,6,7,8-tetrahydro-quinazoline-8-carboxylate]
other
  melting point: 162 to 164 °C

## COC(=O)C1CC2(Cc3cnc(Nc4ccc(-n5cnc(C)c5)c(OC)c4)nc31)OCCO2 (centres unmarked) [Example 55, Methyl 6,6-ethylendioxy-2-[3-methoxy-4-(4-methyl-imidazol-1-yl)-phenylamino]-5,6,7,8-tetrahydro-quinazoline-8-carboxylate]
other
  melting point: 180 to 182 °C

## Cc1cn(-c2ccc(Nc3ncc4c(n3)C(C)(c3ccccc3)CCC4)cc2F)cn1 (centres unmarked) [Example 56, [3-Fluoro-4-(4-methyl-imidazol-1-yl)-phenyl]-(8-methyl-8-phenyl-5,6,7,8-tetrahydro-quinazolin-2-yl)-amine]
other
  melting point: 157 to 158 °C

## Cc1cn(-c2ccc(Nc3ncc4c(n3)C(c3cccc(C(F)(F)F)c3)CCC4)cc2F)cn1 (centres unmarked) [Example 57, [3-Fluoro-4-(4-methyl-imidazol-1-yl)-phenyl]-[8-(3-trifluoromethyl-phenyl)-5,6,7,8-tetrahydro-quinazolin-2-yl]-amine]
other
  melting point: 207 to 209 °C

## CCOC(=O)C1CCCc2cnc(Nc3ccc(-n4cnc(C)c4)c(F)c3)nc21 (centres unmarked) [Example 59, Ethyl 2-[3-fluoro-4-(4-methyl-imidazol-1-yl)-phenylamino]-5,6,7,8-tetrahydro-quinazoline-8-carboxylate]
other
  melting point: 142 to 145 °C

## Cc1cn(-c2ccc(Nc3ncc4c(n3)C(c3cc(C(F)(F)F)cc(C(F)(F)F)c3)CCC4)cc2F)cn1 (centres unmarked) [Example 61, [8-(3,5-Bis-trifluoromethyl-phenyl)-5,6,7,8-tetrahydro-quinazolin-2-yl]-[3-fluoro-4-(4-methyl-imidazol-1-yl)-phenyl]-amine]
other
  melting point: 200 to 202 °C

## COc1cc(Nc2ncc3c(n2)C(c2cc(Cl)ccc2Cl)CCCC3)ccc1-n1cnc(C)c1 (centres unmarked) [Example 62, [9-(2,5-Dichloro-phenyl)-6,7,8,9-tetrahydro-5H-cycloheptapyrimidin-2-yl]-[3-methoxy-4-(4-methyl-imidazol-1-yl)-phenyl]-amine]
other
  melting point: 218 to 220 °C

## CCOC(=O)C1CCc2cnc(Nc3ccc(-n4cnc(C)c4)c(OC)c3)nc21 (centres unmarked) [Example 63, Ethyl 2-[3-methoxy-4-(4-methyl-imidazol-1-yl)-phenylamino]-6,7-dihydro-5H-cyclopentapyrimidine-7-carboxylate]
other
  melting point: 150 to 153 °C

## COc1cc(Nc2ncc3c(n2)C(c2nc(C)no2)CCC3)ccc1-n1cnc(C)c1 (centres unmarked) [Example 64, [3-Methoxy-4-(4-methyl-imidazol-1-yl)-phenyl]-[8-(3-methyl-[1,2,4]oxadiazol-5-yl)-5,6,7,8-tetrahydro-quinazolin-2-yl]-amine]
other
  melting point: 212 to 214 °C

## COc1cc(Nc2ncc3c(n2)C(N2CCOCC2)CCC3)ccc1-n1cnc(C)c1 (centres unmarked) [Example 81, [3-Methoxy-4-(4-methyl-imidazol-1-yl)-phenyl]-(8-morpholin-4-yl-5,6,7,8-tetrahydro-quinazolin-2-yl)-amine]
other
  melting point: 214 to 216 °C

## CCOC1CCCc2cnc(Nc3ccc(-n4cnc(C)c4)c(OC)c3)nc21 (centres unmarked) [Example 83, (8-Ethoxy-5,6,7,8-tetrahydro-quinazolin-2-yl)-[3-methoxy-4-(4-methyl-imidazol-1-yl)-phenyl]-amine]
[1]
  pEC50: 6.35

## COc1cc(Nc2ncc3c(n2)C(c2ccccn2)CCC3)ccc1-n1cnc(C)c1 (centres unmarked) [Example 84, [3-Methoxy-4-(4-methyl-imidazol-1-yl)-phenyl]-(8-pyridin-2-yl-5,6,7,8-tetrahydro-quinazolin-2-yl)-amine]
other
  melting point: 181 to 183 °C

## COc1cc(Nc2ncc3c(n2)C(C(=O)N(C)C)CCC3)ccc1-n1cnc(C)c1 (centres unmarked) [Example 86, 2-[3-Methoxy-4-(4-methyl-imidazol-1-yl)-phenylamino]-5,6,7,8-tetrahydro-quinazoline-8-carboxylic acid dimethylamide]
other
  melting point: 150 to 152 °C

## COc1cc(Nc2ncc3c(n2)C(C(=O)N2CCCC2)CCC3)ccc1-n1cnc(C)c1 (centres unmarked) [Example 87, {2-[3-Methoxy-4-(4-methyl-imidazol-1-yl)-phenylamino]-5,6,7,8-tetrahydro-quinazolin-8-yl}-pyrrolidin-1-yl-methanone]
other
  melting point: 94 to 95 °C

## COc1cc(Nc2nc3c(s2)CCCC3c2ccccc2)ccc1-c1nc(C)no1 (centres unmarked) [Example 89, [3-Methoxy-4-(3-methyl-[1,2,4]oxadiazol-5-yl)-phenyl]-(4-phenyl-4,5,6,7-tetrahydro-benzothiazol-2-yl)-amine]
other
  melting point: 228 to 231 °C

## COc1cc(Nc2nc3c(s2)CCCC3c2ccccc2)ccc1-c1cnn(C)c1 (centres unmarked) [Example 91, [3-Methoxy-4-(1-methyl-1H-pyrazol-4-yl)-phenyl]-(4-phenyl-4,5,6,7-tetrahydro-benzothiazol-2-yl)-amine]
[1]
  pEC50: 6.62

## COc1cc(Nc2nc3c(s2)CCCC3c2ccccc2)ccc1-c1cnc(C)s1 (centres unmarked) [Example 92, [3-Methoxy-4-(2-methyl-thiazol-5-yl)-phenyl]-(4-phenyl-4,5,6,7-tetrahydro-benzothiazol-2-yl)-amine]
[1]
  pEC50: 6.60

## COc1cc(Nc2nc3c(s2)CCCC3c2ccccc2)ccc1-c1sc(C)nc1C (centres unmarked) [Example 93, [4-(2,4-Dimethyl-thiazol-5-yl)-3-methoxy-phenyl]-(4-phenyl-4,5,6,7-tetrahydro-benzothiazol-2-yl)-amine]
[1]
  pEC50: 6.67

## c1ccc(C2CCCc3sc(Nc4ccc(-c5ccncc5)cc4)nc32)cc1 (centres unmarked) [Example 94, (4-Phenyl-4,5,6,7-tetrahydro-benzothiazol-2-yl)-(4-pyridin-4-yl-phenyl)-amine]
[1]
  pEC50: 6.49
